Like-named read-outs stand apart in the source and are kept apart here.

Among the data in patent US20240124436A1 (priority 2019, published 2024) are Control value values, retold here.

For this experiment, the system named is pathogens of rice blast. In kind it is cell-based. The settings on record: 25° C., 6 days, elongation length of hyphae.

For `COc1nc(-c2nccs2)nc(F)c1C(F)(F)F` [Example 3, 6-fluoro-4-methoxy-2-(2-thiazolyl)-5-(trifluoromethyl)pyrimidine], the Control value is on record as 68 (test solution 1000 ppm, 1,000 μl on oatmeal culture medium) and 100 (test solution 2000 ppm, 1,000 μl on oatmeal culture medium).
